From article PMC11571031 (Protein Science : A Publication of the Protein Society, 2024)

Tests used:
CbTan2 = CbTan2 (Clostridium butyricum, UniProt A0A6M0U600)
CbTan1 = CbTan1 (Clostridium butyricum, UniProt C4IC90)
CbTan1, sequence (C4IC90 25-633 limits assumed): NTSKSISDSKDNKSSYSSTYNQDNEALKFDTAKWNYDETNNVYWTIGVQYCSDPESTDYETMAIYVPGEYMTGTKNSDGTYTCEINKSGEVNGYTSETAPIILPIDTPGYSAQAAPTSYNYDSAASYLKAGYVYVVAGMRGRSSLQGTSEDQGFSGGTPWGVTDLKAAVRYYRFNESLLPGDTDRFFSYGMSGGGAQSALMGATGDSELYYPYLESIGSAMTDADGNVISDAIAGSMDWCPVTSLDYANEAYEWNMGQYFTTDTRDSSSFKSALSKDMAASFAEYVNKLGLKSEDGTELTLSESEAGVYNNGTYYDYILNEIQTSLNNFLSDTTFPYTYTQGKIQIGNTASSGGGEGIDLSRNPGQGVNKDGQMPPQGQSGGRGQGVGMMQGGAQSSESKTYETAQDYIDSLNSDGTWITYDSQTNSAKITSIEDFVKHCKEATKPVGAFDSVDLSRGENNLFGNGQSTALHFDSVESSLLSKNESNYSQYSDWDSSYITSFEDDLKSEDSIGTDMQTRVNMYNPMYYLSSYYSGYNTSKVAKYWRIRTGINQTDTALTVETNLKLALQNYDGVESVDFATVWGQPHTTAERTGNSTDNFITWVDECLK

CbTan2, sequence (A0A6M0U600 1-490 limits assumed): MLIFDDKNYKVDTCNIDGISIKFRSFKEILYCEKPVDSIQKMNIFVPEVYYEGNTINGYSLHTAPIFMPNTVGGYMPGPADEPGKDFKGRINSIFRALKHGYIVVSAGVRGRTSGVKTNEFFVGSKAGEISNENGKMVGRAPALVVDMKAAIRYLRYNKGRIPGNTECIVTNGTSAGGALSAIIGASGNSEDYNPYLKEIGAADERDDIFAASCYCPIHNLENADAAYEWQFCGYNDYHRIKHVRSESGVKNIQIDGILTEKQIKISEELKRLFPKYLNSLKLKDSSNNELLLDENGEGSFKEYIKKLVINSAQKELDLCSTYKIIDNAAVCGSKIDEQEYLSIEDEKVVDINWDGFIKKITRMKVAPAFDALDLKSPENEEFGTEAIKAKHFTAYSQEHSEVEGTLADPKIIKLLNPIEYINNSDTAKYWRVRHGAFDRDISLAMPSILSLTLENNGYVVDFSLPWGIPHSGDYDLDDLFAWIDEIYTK

Structure (SMILES)	K i (mM) ^a (CbTan2)	K i (mM) ^a (CbTan1)
O=C(O[C@@H]1Cc2c(O)cc(O)cc2O[C@@H]1c1cc(O)c(O)c(O)c1)c1cc(O)c(O)c(O)c1 [EGCG, epigallocatechin gallate]	1.92 ± 0.59 mM	1.11 ± 0.54 mM
O=C(O[C@@H]1O[C@H](CO)[C@@H](O)[C@H](O)[C@H]1O)c1cc(O)c(O)c(O)c1 [GG, β-glucogallin]	8.51 ± 2.39 mM	35.9 ± 6.77 mM
COC(=O)c1cc(O)c(O)c(O)c1 [MG, methyl gallate]	44.0 ± 6.42 mM	–
